Where two headings read alike, the source gives them in different places.
How the values were obtained:
PFCDPK1(P.falciparum) = PFCDPK1(P.falciparum) (Plasmodium falciparum, UniProt P62344); assay: DiscoverX KINOMEscan kinase profiling; assay type: binding; details: kinase PFCDPK1(P.falciparum) (Entrez CDPK1); compound concentration 1000 nM; read-out: Percent Control
LCK = LCK (Homo sapiens, UniProt P06239); assay: KINOMEscan: LCK; assay type: binding; details: 1000 nM, read-out: Percent Control
Adenosine A3 = Adenosine A3 (Homo sapiens, UniProt P0DMS8); assay: Eurofins Diversity Panel; assay type: binding; details: hum, Conc. 10 μM
MTOR = MTOR (Homo sapiens, UniProt P42345); assay: KINOMEscan: MTOR; assay type: binding; details: 1000 nM, read-out: Percent Control
[1] = biological target: RSK2(Kin.Dom.1-N-terminal) (Homo sapiens, UniProt P51812); assay: KINOMEscan: RSK2(Kin.Dom.1-N-terminal); assay type: binding; details: 100 nM, read-out: Percent Control
HG-3 = assay: MTS proliferation assay; assay type: cell-based
[2] = biological target: Leukotriene, Cysteinyl CysLT1 (Homo sapiens, UniProt Q9Y271); assay: Eurofins Diversity Panel; assay type: binding; details: hum, Conc. 10 μM
WNK1 = WNK1 (Homo sapiens, UniProt Q9H4A3); assay: KINOMEscan: WNK1; assay type: binding; details: 100 nM, read-out: Percent Control
[3] = biological target: RPS6KA4(Kin.Dom.2-C-terminal) (Homo sapiens, UniProt O75676); assay: KINOMEscan: RPS6KA4(Kin.Dom.2-C-terminal); assay type: binding; details: 100 nM, read-out: Percent Control
[4] = biological target: CDK9 in complex with Cyclin T1 (Homo sapiens, UniProt P50750); assay: NanoBRET target engagement assay (HEK293); assay type: cell-based
[5] = biological target: Androgen (Testosterone) AR (Rattus norvegicus, UniProt P15207); assay: Eurofins Diversity Panel; assay type: binding; details: Conc. 10 μM
Adrenergic α2A = biological target: T1, Adrenergic α2A (Homo sapiens, UniProt P08913); assay: Eurofins Diversity Panel; assay type: binding; details: hum
T1 construct: purchased Eurofins
T1 sequence (P08913 1-465): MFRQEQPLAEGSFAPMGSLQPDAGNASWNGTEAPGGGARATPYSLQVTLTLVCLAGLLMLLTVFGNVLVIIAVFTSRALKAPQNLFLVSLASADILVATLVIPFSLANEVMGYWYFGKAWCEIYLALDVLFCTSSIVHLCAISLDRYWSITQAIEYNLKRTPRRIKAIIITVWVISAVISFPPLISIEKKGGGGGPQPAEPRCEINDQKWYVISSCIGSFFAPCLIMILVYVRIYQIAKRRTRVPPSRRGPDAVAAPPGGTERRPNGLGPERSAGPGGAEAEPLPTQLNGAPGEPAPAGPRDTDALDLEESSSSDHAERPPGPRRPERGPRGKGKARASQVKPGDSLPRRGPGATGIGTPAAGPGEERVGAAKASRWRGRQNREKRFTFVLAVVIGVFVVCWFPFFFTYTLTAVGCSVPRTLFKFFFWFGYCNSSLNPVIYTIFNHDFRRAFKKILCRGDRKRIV

[6] = biological target: JAK1(JH1domain-catalytic) (Homo sapiens, UniProt P23458); assay: KINOMEscan: JAK1(JH1domain-catalytic); assay type: binding; details: 1000 nM, read-out: Percent Control
KIT-autoinhibited = KIT-autoinhibited (Homo sapiens, UniProt P10721); assay: KINOMEscan: KIT-autoinhibited; assay type: binding; details: 1000 nM, read-out: Percent Control
CDK4-cyclinD3 = CDK4-cyclinD3 (Homo sapiens, UniProt P11802); assay: KINOMEscan: CDK4-cyclinD3; assay type: binding; details: 1000 nM, read-out: Percent Control
YSK1 = YSK1 (Homo sapiens, UniProt O00506); assay: KINOMEscan: YSK1; assay type: binding; details: 100 nM, read-out: Percent Control
GSK3β = GSK3β (Homo sapiens, UniProt P49841); assay: NanoBRET target engagement assay (HEK293); assay type: cell-based
YANK3 = YANK3 (Homo sapiens, UniProt Q86UX6); assay: KINOMEscan: YANK3; assay type: binding; details: 100 nM, read-out: Percent Control
MAP3K1 = MAP3K1 (Homo sapiens, UniProt Q13233); assay: KINOMEscan: MAP3K1; assay type: binding; details: 1000 nM, read-out: Percent Control
SNARK = SNARK (Homo sapiens, UniProt Q9H093); assay: KINOMEscan: SNARK; assay type: binding; details: 100 nM, read-out: Percent Control
RIPK1 = RIPK1 (Homo sapiens, UniProt Q13546); assay: KINOMEscan: RIPK1; assay type: binding; details: 100 nM, read-out: Percent Control
Sequence of RIPK1 (Q13546 whole entry): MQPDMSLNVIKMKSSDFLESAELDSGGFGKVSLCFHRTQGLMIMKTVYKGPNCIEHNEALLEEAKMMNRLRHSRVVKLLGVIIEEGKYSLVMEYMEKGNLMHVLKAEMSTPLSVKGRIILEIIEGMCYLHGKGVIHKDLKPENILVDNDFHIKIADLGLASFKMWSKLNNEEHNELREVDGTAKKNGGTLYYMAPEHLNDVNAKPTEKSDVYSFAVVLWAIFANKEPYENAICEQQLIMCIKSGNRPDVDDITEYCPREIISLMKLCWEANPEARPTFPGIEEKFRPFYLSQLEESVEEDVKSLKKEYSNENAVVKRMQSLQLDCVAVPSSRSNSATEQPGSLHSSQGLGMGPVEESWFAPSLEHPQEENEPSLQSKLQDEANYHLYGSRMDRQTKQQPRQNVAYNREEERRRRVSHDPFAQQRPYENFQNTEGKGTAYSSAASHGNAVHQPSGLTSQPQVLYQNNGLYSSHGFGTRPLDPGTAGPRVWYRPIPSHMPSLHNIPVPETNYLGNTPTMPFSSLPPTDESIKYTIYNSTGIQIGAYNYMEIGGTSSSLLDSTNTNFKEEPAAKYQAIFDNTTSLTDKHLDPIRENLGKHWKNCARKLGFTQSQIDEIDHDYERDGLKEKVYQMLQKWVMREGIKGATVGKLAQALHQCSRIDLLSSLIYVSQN

Sequence of RPS6KA4(Kin.Dom.2-C-terminal) (O75676 372-772 limits assumed): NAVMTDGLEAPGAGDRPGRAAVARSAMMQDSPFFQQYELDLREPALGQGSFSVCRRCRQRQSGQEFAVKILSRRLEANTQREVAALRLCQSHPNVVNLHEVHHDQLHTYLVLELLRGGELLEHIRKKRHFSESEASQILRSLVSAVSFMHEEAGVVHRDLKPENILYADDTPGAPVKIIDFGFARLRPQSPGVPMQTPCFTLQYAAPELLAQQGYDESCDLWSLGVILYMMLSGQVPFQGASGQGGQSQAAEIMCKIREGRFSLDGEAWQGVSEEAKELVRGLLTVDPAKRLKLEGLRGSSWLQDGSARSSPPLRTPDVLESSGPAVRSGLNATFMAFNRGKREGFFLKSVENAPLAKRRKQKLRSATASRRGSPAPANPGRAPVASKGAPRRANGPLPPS
Sequence of PFCDPK1(P.falciparum) (P62344 whole entry): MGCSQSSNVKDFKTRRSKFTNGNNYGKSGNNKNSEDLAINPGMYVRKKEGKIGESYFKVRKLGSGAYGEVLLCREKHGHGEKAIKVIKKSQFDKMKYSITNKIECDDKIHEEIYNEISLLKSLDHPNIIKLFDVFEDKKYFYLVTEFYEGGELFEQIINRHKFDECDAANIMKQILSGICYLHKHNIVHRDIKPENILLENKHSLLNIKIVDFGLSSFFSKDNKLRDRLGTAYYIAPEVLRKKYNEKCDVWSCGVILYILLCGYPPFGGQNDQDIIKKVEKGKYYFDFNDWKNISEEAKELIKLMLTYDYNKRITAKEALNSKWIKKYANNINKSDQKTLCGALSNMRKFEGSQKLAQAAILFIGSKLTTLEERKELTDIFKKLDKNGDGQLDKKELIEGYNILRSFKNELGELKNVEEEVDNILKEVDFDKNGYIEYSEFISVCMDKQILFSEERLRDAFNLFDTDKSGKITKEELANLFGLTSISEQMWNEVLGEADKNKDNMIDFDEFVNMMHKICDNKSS
Sequence of Adenosine A3 (P0DMS8 whole entry): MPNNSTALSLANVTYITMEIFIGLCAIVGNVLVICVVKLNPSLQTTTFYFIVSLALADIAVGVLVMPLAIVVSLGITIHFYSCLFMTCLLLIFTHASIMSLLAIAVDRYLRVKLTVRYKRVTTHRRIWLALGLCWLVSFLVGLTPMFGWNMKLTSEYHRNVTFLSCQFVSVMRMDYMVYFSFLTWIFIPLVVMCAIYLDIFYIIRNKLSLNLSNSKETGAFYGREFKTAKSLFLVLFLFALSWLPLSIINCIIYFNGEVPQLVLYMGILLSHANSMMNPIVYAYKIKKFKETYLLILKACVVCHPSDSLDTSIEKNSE
Sequence of GSK3β (P49841 whole entry): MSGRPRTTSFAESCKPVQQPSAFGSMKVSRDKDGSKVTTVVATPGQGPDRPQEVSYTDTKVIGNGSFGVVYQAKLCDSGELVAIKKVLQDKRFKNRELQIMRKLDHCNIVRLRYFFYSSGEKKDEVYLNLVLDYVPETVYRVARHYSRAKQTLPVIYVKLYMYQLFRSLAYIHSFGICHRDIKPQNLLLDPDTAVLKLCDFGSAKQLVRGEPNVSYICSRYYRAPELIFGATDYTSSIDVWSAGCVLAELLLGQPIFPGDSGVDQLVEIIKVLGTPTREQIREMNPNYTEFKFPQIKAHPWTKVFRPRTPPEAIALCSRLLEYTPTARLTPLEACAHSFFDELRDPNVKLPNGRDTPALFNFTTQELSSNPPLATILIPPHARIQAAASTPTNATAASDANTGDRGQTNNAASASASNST
Sequence of Androgen (Testosterone) AR (P15207 whole entry S389L): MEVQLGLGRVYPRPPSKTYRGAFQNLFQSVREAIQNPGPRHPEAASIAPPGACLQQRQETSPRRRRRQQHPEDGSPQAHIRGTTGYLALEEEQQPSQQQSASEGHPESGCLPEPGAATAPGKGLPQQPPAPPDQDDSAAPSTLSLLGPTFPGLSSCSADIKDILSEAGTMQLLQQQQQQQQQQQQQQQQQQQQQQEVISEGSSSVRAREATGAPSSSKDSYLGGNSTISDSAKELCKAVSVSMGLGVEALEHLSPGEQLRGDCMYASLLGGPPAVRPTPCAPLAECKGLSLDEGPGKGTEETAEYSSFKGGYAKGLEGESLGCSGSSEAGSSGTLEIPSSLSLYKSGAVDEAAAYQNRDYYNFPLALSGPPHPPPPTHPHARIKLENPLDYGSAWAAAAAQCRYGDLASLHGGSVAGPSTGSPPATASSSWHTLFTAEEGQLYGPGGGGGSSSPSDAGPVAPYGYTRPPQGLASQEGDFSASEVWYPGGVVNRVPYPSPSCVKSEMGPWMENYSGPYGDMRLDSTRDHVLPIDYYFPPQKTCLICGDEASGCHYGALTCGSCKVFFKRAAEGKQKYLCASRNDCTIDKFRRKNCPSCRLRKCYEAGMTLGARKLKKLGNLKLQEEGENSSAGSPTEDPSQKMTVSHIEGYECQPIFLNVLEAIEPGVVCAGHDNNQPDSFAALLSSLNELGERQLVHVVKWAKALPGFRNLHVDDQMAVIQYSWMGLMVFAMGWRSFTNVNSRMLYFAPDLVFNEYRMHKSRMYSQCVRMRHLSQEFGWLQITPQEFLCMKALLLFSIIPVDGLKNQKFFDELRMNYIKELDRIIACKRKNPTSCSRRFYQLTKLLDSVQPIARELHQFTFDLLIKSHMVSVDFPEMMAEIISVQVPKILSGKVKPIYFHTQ
Sequence of MAP3K1 (Q13233 whole entry): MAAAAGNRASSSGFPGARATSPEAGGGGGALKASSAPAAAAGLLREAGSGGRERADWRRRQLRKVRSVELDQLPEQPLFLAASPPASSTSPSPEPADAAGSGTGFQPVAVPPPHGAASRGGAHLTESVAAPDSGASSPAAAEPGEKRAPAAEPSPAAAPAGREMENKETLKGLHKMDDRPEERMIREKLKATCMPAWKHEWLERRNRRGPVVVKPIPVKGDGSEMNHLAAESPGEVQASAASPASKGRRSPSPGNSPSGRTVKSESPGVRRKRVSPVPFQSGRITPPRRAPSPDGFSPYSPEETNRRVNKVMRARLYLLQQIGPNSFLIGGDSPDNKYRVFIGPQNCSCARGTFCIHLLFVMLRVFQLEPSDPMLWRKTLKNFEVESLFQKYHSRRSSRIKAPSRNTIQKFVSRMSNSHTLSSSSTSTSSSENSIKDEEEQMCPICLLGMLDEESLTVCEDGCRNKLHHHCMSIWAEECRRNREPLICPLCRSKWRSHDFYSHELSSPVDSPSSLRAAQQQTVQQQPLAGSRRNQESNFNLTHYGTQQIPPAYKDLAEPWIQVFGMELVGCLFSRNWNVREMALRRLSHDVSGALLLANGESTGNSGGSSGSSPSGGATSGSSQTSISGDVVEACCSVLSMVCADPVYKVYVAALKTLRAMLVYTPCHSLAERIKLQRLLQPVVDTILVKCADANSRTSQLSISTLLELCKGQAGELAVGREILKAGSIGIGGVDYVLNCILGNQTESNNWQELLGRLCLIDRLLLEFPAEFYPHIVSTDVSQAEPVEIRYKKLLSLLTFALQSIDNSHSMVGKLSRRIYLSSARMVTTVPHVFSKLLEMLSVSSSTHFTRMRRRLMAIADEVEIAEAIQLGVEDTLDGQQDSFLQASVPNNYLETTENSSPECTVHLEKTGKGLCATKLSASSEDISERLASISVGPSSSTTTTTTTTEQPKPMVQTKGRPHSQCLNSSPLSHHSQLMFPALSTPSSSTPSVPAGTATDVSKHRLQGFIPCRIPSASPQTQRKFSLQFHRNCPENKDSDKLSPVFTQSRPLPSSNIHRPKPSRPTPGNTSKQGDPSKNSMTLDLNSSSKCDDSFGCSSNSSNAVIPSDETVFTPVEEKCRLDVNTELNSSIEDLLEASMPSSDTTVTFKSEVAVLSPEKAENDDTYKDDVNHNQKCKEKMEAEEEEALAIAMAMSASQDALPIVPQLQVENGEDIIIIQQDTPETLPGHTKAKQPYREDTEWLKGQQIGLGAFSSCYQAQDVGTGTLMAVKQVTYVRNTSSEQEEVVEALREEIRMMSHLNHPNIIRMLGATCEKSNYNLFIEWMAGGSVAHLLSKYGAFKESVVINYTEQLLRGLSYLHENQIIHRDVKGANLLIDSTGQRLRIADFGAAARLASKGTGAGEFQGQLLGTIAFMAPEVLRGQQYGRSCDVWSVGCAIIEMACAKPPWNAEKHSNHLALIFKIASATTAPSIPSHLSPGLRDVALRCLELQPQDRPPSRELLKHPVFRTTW
Sequence of JAK1(JH1domain-catalytic) (P23458 875-1154 limits assumed): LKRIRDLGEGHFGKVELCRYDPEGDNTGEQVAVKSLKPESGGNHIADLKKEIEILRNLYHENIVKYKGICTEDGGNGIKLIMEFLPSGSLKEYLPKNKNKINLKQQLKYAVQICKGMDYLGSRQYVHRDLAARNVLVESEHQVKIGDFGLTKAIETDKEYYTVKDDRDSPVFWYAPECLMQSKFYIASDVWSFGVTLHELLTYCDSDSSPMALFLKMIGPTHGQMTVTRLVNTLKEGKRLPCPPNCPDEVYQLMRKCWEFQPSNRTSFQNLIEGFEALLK

How did the remaining binding at 1 µM (PFCDPK1(P.falciparum)) turn out when `COc1cc(F)ccc1-c1cc(Nc2cc(CS(C)(=N)=O)ccn2)ncc1F` (stereo not shown) [VIP152] was run?
The remaining binding at 1 µM was 86%.

And the remaining binding at 1 µM (LCK)?
The remaining binding at 1 µM was 56%.

What about the inhibition at 10 µM (Adenosine A3) of the same compound?
Its inhibition at 10 µM is 43%.

What about the remaining binding at 1 µM (MTOR) of the same compound?
The remaining binding at 1 µM was 100%.

And the remaining binding at 0.1 µM [1]?
The remaining binding at 0.1 µM was 100%.

And the IC50 (HG-3; Homo sapiens, 24, 48, and 72 h, read-out: proliferation IC50)?
The IC50 was 50 to 67 nM.

And the IC50 (HG-3; Homo sapiens, two-hour drugging followed by washout, MTS after 72 h, read-out: 50% growth inhibition)?
Its IC50 is 970 nM.

What about the inhibition at 10 µM [2] of the same compound?
The inhibition at 10 µM was -22%.

What about the remaining binding at 0.1 µM (WNK1) of the same compound?
Its remaining binding at 0.1 µM is 100%.

What about the remaining binding at 0.1 µM [3] of the same compound?
The remaining binding at 0.1 µM was 100%.

And the “potency versus the other inhibitors” value [4]?
The value was “higher potency”.

And the inhibition at 10 µM [5]?
The inhibition at 10 µM was 35%.

What about the IC50 (Adrenergic α2A) of the same compound?
Its IC50 is 64 nM.

What about the Ki (Adrenergic α2A) of the same compound?
The Ki was 32 nM.

What about the nH (Adrenergic α2A) of the same compound?
The nH was 0.94.

What about the inhibition at 10 µM (Adrenergic α2A; Conc. 10 μM) of the same compound?
The inhibition at 10 µM was 100%.

What about the remaining binding at 1 µM [6] of the same compound?
The remaining binding at 1 µM was 96%.

And the remaining binding at 1 µM (KIT-autoinhibited)?
Its remaining binding at 1 µM is 100%.

And the remaining binding at 1 µM (CDK4-cyclinD3)?
Its remaining binding at 1 µM is 14%.

What about the remaining binding at 0.1 µM (YSK1) of the same compound?
The remaining binding at 0.1 µM was 100%.

And the “inhibitory capacity against GSK3β” value (GSK3β)?
Its value is “Inhibits”.

What about the remaining binding at 0.1 µM (YANK3) of the same compound?
Its remaining binding at 0.1 µM is 99%.

And the remaining binding at 1 µM (MAP3K1)?
The remaining binding at 1 µM was 78%.

What about the remaining binding at 0.1 µM (SNARK) of the same compound?
Its remaining binding at 0.1 µM is 100%.

And the remaining binding at 0.1 µM (RIPK1)?
The remaining binding at 0.1 µM was 100%.

Source: PMC9898036, “VIP152 is a selective CDK9 inhibitor with pre-clinical in vitro and in vivo efficacy in chronic lymphocytic leukemia” (Leukemia, 2022)
